{"source": "paper PMC3585409", "about": "“Structural Determinants for Activity and Specificity of the Bacterial Toxin LlpA” (PLoS Pathogens, 2013)", "key": {"LlpABW [1]": {"target": "T1, LlpABW (Pseudomonas putida, UniProt Q8GEJ9)", "T1 construct": "gene llpA; full-length, N-terminal His6 tag (pET28a, pCMPG6056), E. coli BL21(DE3); no signal peptide; N-domain Arg4-Pro135, C-domain Ala136-Gln253, hairpin Pro254-His275", "T1 sequence (Q8GEJ9 1-276)": "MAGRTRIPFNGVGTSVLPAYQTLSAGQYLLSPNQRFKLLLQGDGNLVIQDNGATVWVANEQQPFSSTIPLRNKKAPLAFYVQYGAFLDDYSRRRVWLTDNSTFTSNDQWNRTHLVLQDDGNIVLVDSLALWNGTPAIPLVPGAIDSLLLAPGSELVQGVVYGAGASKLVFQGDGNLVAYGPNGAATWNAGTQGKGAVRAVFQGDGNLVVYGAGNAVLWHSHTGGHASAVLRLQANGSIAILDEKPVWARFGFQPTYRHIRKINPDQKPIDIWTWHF", "assay": "ITC", "assay_type": "binding"}, "LlpABW [2]": {"target": "T2, LlpABW (Pseudomonas putida, UniProt Q8GEJ9, V208Y)", "T2 construct": "gene llpA; full-length, N-terminal His6 tag (pET28a, pCMPG6056), E. coli BL21(DE3); no signal peptide; N-domain Arg4-Pro135, C-domain Ala136-Gln253, hairpin Pro254-His275", "T2 sequence (Q8GEJ9 1-276, stated change not applied)": "as the sequence (Q8GEJ9 1-276) above", "assay": "ITC", "assay_type": "binding"}, "[3]": {"conditions": "bis-TRIS propane 20 mM, 200 mM NaCl, pH 7.0, 25°C, single-site fit n = 1, site III^C"}}, "note": "Read-outs that look alike come from different tables or passages of the source.", "data": [{"smiles": "CC(=O)N[C@H]1[C@H](O[C@@H]2[C@@H](OC[C@H]3OC(O)[C@@H](O)[C@@H](O[C@H]4O[C@H](CO)[C@@H](O)[C@H](O)[C@@H]4O[C@@H]4O[C@H](CO)[C@@H](O)[C@H](O)[C@H]4NC(C)=O)[C@@H]3O)O[C@H](CO)[C@@H](O)[C@@H]2O)O[C@H](CO)[C@@H](O)[C@@H]1O", "note": "(some centres unmarked) [GlcNAcβ(1–2)Manα(1–3)[GlcNAcβ(1–2)Manα(1–6)]Man]", "values": [{"measurement": "Kd", "setting": "LlpABW [1]; [3]", "result": 2.1, "unit": "mM"}]}, {"smiles": "OC[C@H]1O[C@H](OC[C@H]2OC(O)[C@@H](O)[C@@H](O[C@H]3O[C@H](CO)[C@@H](O)[C@H](O)[C@@H]3O)[C@@H]2O)[C@@H](O)[C@@H](O)[C@@H]1O", "note": "(some centres unmarked) [Manα(1–3)[Manα(1–6)]Man]", "values": [{"measurement": "Kd", "setting": "LlpABW [1]; [3]", "result": 10.1, "unit": "mM"}]}, {"smiles": "OC[C@H]1O[C@H](OC[C@H]2OC(O)[C@@H](O)[C@@H](O)[C@@H]2O)[C@@H](O)[C@@H](O)[C@@H]1O", "note": "(some centres unmarked) [Manα(1–6)Man]", "values": [{"measurement": "Kd", "setting": "LlpABW [1]; [3]", "result": 17.2, "unit": "mM"}]}, {"smiles": "OC[C@H]1O[C@H](O[C@@H]2C(O)O[C@H](CO)[C@@H](O)[C@@H]2O)[C@@H](O)[C@@H](O)[C@@H]1O", "note": "(some centres unmarked) [Manα(1–2)Man]", "values": [{"measurement": "Kd", "setting": "LlpABW [1]; [3]", "result": 42.4, "unit": "mM"}]}, {"smiles": "OC[C@H]1O[C@H](O[C@H]2[C@H](O)[C@@H](CO)OC(O)[C@H]2O)[C@@H](O)[C@@H](O)[C@@H]1O", "note": "(some centres unmarked) [Manα(1–3)Man]", "values": [{"measurement": "Kd", "setting": "LlpABW [1]; [3]", "result": 18.2, "unit": "mM"}, {"measurement": "Kd", "setting": "LlpABW [2]; [3]", "result": 23, "unit": "mM"}]}, {"smiles": "CO[C@H]1O[C@H](CO)[C@@H](O)[C@H](O)[C@@H]1O", "note": "[methyl-α-D-mannopyranoside]", "values": [{"measurement": "Kd", "setting": "LlpABW [1]; read-out: Kd", "result": 45.9, "unit": "mM"}, {"measurement": "Kd", "setting": "LlpABW [2]; read-out: Kd", "result": 58.8, "unit": "mM"}]}]}
